target: T1, human FXR (Homo sapiens, UniProt Q96RI1); test: transient human FXR/Gal4-luciferase reporter assay; format: cell-based; conditions: Gal4-hFXR transfected HEK293 reporter cells; relative to 8 μM GW-4064
T1 construct: expressed in transfected cells; host or cells: HEK293 cells stably carrying a 5xGal4-response-element firefly luciferase reporter, transiently transfected with pcDNA3.1-Gal4-FXR
T1 sequence (Q96RI1 262-486 limits assumed): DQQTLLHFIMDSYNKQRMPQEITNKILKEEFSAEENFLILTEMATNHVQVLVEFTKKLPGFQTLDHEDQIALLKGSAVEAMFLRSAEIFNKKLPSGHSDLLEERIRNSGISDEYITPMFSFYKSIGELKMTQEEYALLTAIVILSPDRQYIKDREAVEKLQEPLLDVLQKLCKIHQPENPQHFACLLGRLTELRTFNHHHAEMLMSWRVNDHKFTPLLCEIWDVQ
Procedure, shortened: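 Transient Gal4-hFXR LBD fusion (pcDNA3.1, Lipofectamine, overnight) expressed in a HEK293 reporter line stably bearing five Gal4 elements upstream of firefly luciferase, grown in charcoal/dextran-stripped FBS. Compound dilutions in DMSO incubated with cells overnight at 37° C, 5% CO2, before luciferase readout.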

`Cc1cc(C(=O)O)cc2sc(N3CCC4(C=C(c5c(-c6c(Cl)cncc6Cl)noc5C5CC5)C4)CC3)nc12` [Example 61, 2-(2-(5-Cyclopropyl-3-(3,5-dichloropyridin-4-yl)isoxazol-4-yl)-7-azaspiro[3.5]non-1-en-7-yl)-4-methylbenzo[d]thiazole-6-carboxylic acid] was tested. Which EC50 did it give?
The EC50 was 7.2 nM.

Which EC50 does the source give for `O=C(O[C@@H]1O[C@H](C(=O)O)[C@@H](O)[C@H](O)[C@H]1O)c1cc(C(F)(F)F)c2cc(N3CCC4(C=C(c5c(-c6c(Cl)cncc6Cl)noc5C5CC5)C4)CC3)ccc2n1` [Example 224, (2S,3S,4S,5R,6S)-6-((6-(2-(5-Cyclopropyl-3-(3,5-dichloropyridin-4-yl)isoxazol-4-yl)-7-azaspiro[3.5]non-1-en-7-yl)-4-(trifluoromethyl)quinoline-2-carbonyl)oxy)-3,4,5-trihydroxytetrahydro-2H-pyran-2-carboxylic acid] here?
Its EC50 is 73 nM.

How did the EC50 turn out when `COc1cc(C(=O)O)nc2ccc(N3CCC4(C=C(c5c(-c6cnccc6C(F)(F)F)noc5C5CC5)C4)CC3)cc12` [Example 146, 6-(2-(5-Cyclopropyl-3-(4-(trifluoromethyl)pyridin-3-yl)isoxazol-4-yl)-7-azaspiro[3.5]non-1-en-7-yl)-4-methoxyquinoline-2-carboxylic acid] was run?
The EC50 was 185 nM.

Which EC50 does the source give for `O=C(O)c1cc(C(F)(F)F)c2cc(N3CCC4(C=C(c5c(-c6c(Cl)cccc6Cl)noc5C5CC5)C4)CC3)ccc2n1` [Example 83, 6-(2-(5-Cyclopropyl-3-(2,6-dichlorophenyl)isoxazol-4-yl)-7-azaspiro[3.5]non-1-en-7-yl)-4-(trifluoromethyl)quinoline-2-carboxylic acid] here?
Its EC50 is 38 nM.

For `CC(C)c1onc(-c2c(Cl)cncc2Cl)c1C1=CC2(CCN(c3nc4c(F)cc(C(=O)O)cc4s3)CC2)C1` [Example 52, 2-(2-(3-(3,5-Dichloropyridin-4-yl)-5-isopropylisoxazol-4-yl)-7-azaspiro[3.5]non-1-en-7-yl)-4-fluorobenzo[d]thiazole-6-carboxylic acid], which EC50 is on record?
The EC50 was 58 nM.

How did the EC50 turn out when `O=C(O)c1ccc2nc(N3CCC4(C=C(c5c(-c6ccccc6OC(F)(F)F)noc5C5CC5)C4)CC3)ccc2c1` [Example 140, 2-(2-(5-Cyclopropyl-3-(2-(trifluoromethoxy)phenyl)isoxazol-4-yl)-7-azaspiro[3.5]non-1-en-7-yl)quinoline-6-carboxylic acid] was run?
Its EC50 is 133 nM.

`Cc1nc(N2CCC3(C=C(c4c(-c5c(Cl)cccc5Cl)noc4C4CC4)C3)CC2)ccc1C(=O)O` [Example 124, 6-(2-(5-Cyclopropyl-3-(2,6-dichlorophenyl)isoxazol-4-yl)-7-azaspiro[3.5]non-1-en-7-yl)-2-methylnicotinic acid] was tested. Which EC50 did it give?
The EC50 was 78 nM.

With `O=C(O)c1cc2ccc(N3CCC4(C=C(c5c(-c6cnccc6C(F)(F)F)noc5C5CC5)C4)CC3)cc2nn1` [Example 81, 7-(2-(5-Cyclopropyl-3-(4-(trifluoromethyl)pyridin-3-yl)isoxazol-4-yl)-7-azaspiro[3.5]non-1-en-7-yl)cinnoline-3-carboxylic acid] as the compound, how does the EC50 read?
Its EC50 is 1540 nM.

How did the EC50 turn out when `O=C(O)c1cc(F)c2nc(N3CCC4(CC3)CC(c3c(-c5ccccc5C(F)(F)F)noc3C3CC3)C4)sc2c1` [Example 36, 2-(2-(5-cyclopropyl-3-(2-(trifluoromethyl)phenyl)isoxazol-4-yl)-7-azaspiro[3.5]nonan-7-yl)-4-fluorobenzo[d]thiazole-6-carboxylic acid] was run?
The EC50 was 116 nM.

`Cc1cc(C(=O)O)cnc1N1CCC2(C=C(c3c(-c4c(Cl)cccc4Cl)noc3C3CC3)C2)CC1` [Example 121, 6-(2-(5-Cyclopropyl-3-(2,6-dichlorophenyl)isoxazol-4-yl)-7-azaspiro[3.5]non-1-en-7-yl)-5-methylnicotinic acid] was tested. Which EC50 did it give?
Its EC50 is 2590 nM.

`O=C(O)c1cc(OCCO)c2cc(N3CCC4(C=C(c5c(-c6c(Cl)cncc6Cl)noc5C5CC5)C4)CC3)ccc2n1` [Example 142, 6-(2-(5-Cyclopropyl-3-(3,5-dichloropyridin-4-yl)isoxazol-4-yl)-7-azaspiro[3.5]non-1-en-7-yl)-4-(2-hydroxyethoxy)quinoline-2-carboxylic acid] was tested. Which EC50 did it give?
Its EC50 is 147 nM.

`Cc1cc(C(=O)O)nc(N2CCC3(C=C(c4c(-c5ccccc5C(F)(F)F)noc4C4CC4)C3)CC2)n1` [Example 169, 2-(2-(5-Cyclopropyl-3-(2-(trifluoromethyl)phenyl)isoxazol-4-yl)-7-azaspiro[3.5]non-1-en-7-yl)-6-methylpyrimidine-4-carboxylic acid] was tested. Which EC50 did it give?
The EC50 was 1300 nM.

For `Cn1cc(C(=O)O)c2cnc(N3CCC4(C=C(c5c(-c6c(Cl)cccc6Cl)noc5C5CC5)C4)CC3)nc21` [Example 6, 2-(2-(5-Cyclopropyl-3-(2,6-dichlorophenyl)isoxazol-4-yl)-7-azaspiro[3.5]non-1-en-7-yl)-7-methyl-7H-pyrrolo[2,3-d]pyrimidine-5-carboxylic acid], which EC50 is on record?
The EC50 was 47 nM.

How did the EC50 turn out when `COc1cc(C(=O)O)cc2sc(N3CCC4(C=C(c5c(-c6ccccc6C(F)(F)F)noc5C5CC5)C4)CC3)nc12` [Example 71, 2-(2-(5-Cyclopropyl-3-(2-(trifluoromethyl)phenyl)isoxazol-4-yl)-7-azaspiro[3.5]non-1-en-7-yl)-4-methoxybenzo[d]thiazole-6-carboxylic acid] was run?
Its EC50 is 9.4 nM.

For `COc1cc(C(=O)NS(C)(=O)=O)nc2ccc(N3CCC4(C=C(c5c(-c6c(Cl)cncc6Cl)noc5C5CC5)C4)CC3)cc12` [Example 195, 6-(2-(5-Cyclopropyl-3-(3,5-dichloropyridin-4-yl)isoxazol-4-yl)-7-azaspiro[3.5]non-1-en-7-yl)-4-methoxy-N-(methylsulfonyl)quinoline-2-carboxamide], which EC50 is on record?
The EC50 was 75 nM.

For `O=C(O)c1cccc(N2CCC3(C=C(c4c(-c5c(Cl)cccc5Cl)noc4C4CC4)C3)CC2)n1` [Example 4, 6-(2-(5-Cyclopropyl-3-(2,6-dichlorophenyl)isoxazol-4-yl)-7-azaspiro[3.5]non-1-en-7-yl) picolinic acid], which EC50 is on record?
The EC50 was 712 nM.

How did the EC50 turn out when `O=C(O)c1ccc(N2CCC3(C=C(c4c(-c5c(Cl)cc(F)cc5Cl)noc4C4CC4)C3)CC2)nc1` [Example 67, 6-(2-(5-Cyclopropyl-3-(2,6-dichloro-4-fluorophenyl)isoxazol-4-yl)-7-azaspiro[3.5]non-1-en-7-yl)nicotinic acid] was run?
The EC50 was 493 nM.

For `O=C(NS(=O)(=O)C1CC1)c1cc(OC(F)F)c2cc(N3CCC4(C=C(c5c(-c6cccnc6C(F)(F)F)noc5C5CC5)C4)CC3)ccc2n1` [Example 191, 6-(2-(5-Cyclopropyl-3-(2-(trifluoromethyl)pyridin-3-yl)isoxazol-4-yl)-7-azaspiro[3.5]non-1-en-7-yl)-N-(cyclopropylsulfonyl)-4-(difluoromethoxy)quinoline-2-carboxamide], which EC50 is on record?
Its EC50 is 140 nM.

`O=C(O)c1cc(OCCO)c2cc(N3CCC4(C=C(c5c(-c6ccccc6C(F)(F)F)noc5C5CC5)C4)CC3)ccc2n1` [Example 143, 6-(2-(5-Cyclopropyl-3-(2-(trifluoromethyl)phenyl)isoxazol-4-yl)-7-azaspiro[3.5]non-1-en-7-yl)-4-(2-hydroxyethoxy)quinoline-2-carboxylic acid] was tested. Which EC50 did it give?
Its EC50 is 159 nM.

For `O=C(O)c1cc2ccc(N3CCC4(C=C(c5c(-c6c(F)cccc6F)noc5C5CC5)C4)CC3)cc2cn1` [Example 162, 7-(2-(5-Cyclopropyl-3-(2,6-difluorophenyl)isoxazol-4-yl)-7-azaspiro[3.5]non-1-en-7-yl)isoquinoline-3-carboxylic acid], which EC50 is on record?
Its EC50 is 2820 nM.

With `Cn1nc(N2CCC3(C=C(c4c(-c5ccccc5OC(F)(F)F)noc4C4CC4)C3)CC2)c2ncc(C(=O)O)cc21` [Example 173, 3-(2-(5-Cyclopropyl-3-(2-(trifluoromethoxy)phenyl)isoxazol-4-yl)-7-azaspiro[3.5]non-1-en-7-yl)-1-methyl-1H-pyrazolo[4,3-b]pyridine-6-carboxylic acid] as the compound, how does the EC50 read?
The EC50 was 2790 nM.

`O=C(O)c1ccc(N2C3CCC2CC2(CC(c4c(-c5c(Cl)cccc5Cl)noc4C4CC4)C2)C3)nc1` (stereo not drawn) [Example 16, 6-(3′-(5-Cyclopropyl-3-(2,6-dichlorophenyl)isoxazol-4-yl)-8-azaspiro[bicyclo[3.2.1]octane-3,1′-cyclobutan]-8-yl)nicotinic acid] was tested. Which EC50 did it give?
The EC50 was 646 nM.

With `O=C(O)c1cnc(N2CCC3(C=C(c4c(-c5ccccc5OC(F)(F)F)noc4C4CC4)C3)CC2)c(F)c1` [Example 27, 6-(2-(5-Cyclopropyl-3-(2-(trifluoromethoxy)phenyl)isoxazol-4-yl)-7-azaspiro[3.5]non-1-en-7-yl)-5-fluoronicotinic acid] as the compound, how does the EC50 read?
Its EC50 is 1100 nM.

`Cn1cc(C(=O)O)c2ccc(N3CCC4(C=C(c5c(C(F)F)cnn5-c5ccccc5C(F)(F)F)C4)CC3)cc21` [Example 219, 6-(2-(4-(Difluoromethyl)-1-(2-(trifluoromethyl)phenyl)-1H-pyrazol-5-yl)-7-azaspiro[3.5]non-1-en-7-yl)-1-methyl-1H-indole-3-carboxylic acid] was tested. Which EC50 did it give?
Its EC50 is 180 nM.

With `Cc1c(N2CCC3(C=C(c4c(-c5c(Cl)cccc5Cl)noc4C4CC4)C3)CC2)ccc2cc(C(=O)O)cnc12` [Example 132, 7-(2-(5-Cyclopropyl-3-(2,6-dichlorophenyl)isoxazol-4-yl)-7-azaspiro[3.5]non-1-en-7-yl)-8-methylquinoline-3-carboxylic acid] as the compound, how does the EC50 read?
The EC50 was 958 nM.

`Cn1nc(N2CCC3(C=C(c4c(-c5c(Cl)cccc5Cl)noc4C4CC4)C3)CC2)c2ccc(C(=O)O)cc21` [Example 133, 3-(2-(5-Cyclopropyl-3-(2,6-dichlorophenyl)isoxazol-4-yl)-7-azaspiro[3.5]non-1-en-7-yl)-1-methyl-1H-indazole-6-carboxylic acid] was tested. Which EC50 did it give?
The EC50 was 1170 nM.

How did the EC50 turn out when `CC(C)c1onc(-c2c(Cl)cccc2Cl)c1C1=CC2(CCN(c3nc4c(F)cc(C(=O)O)cc4s3)CC2)C1` [Example 49, 2-(2-(3-(2,6-Dichlorophenyl)-5-isopropylisoxazol-4-yl)-7-azaspiro[3.5]non-1-en-7-yl)-4-fluorobenzo[d]thiazole-6-carboxylic acid] was run?
The EC50 was 57 nM.
